# Measurements from US10806785B2, “Immunomodulator compounds and methods of use” (Incyte Corporation, priority 2016, dated 2020).
# Biological target: PD-1/PD-L1 (Homo sapiens (Human), UniProt Q9NZQ7)
# Assay: PD-1/PD-L1 binding assay (HTRF)
# Procedure: The assays were conducted in a standard black 384-well polystyrene plate with a final volume of 20 μL. Inhibitors were first serially diluted in DMSO and then added to the plate wells before the addition of other reaction components. The final concentration of DMSO in the assay was 1%. The assays were carried out at 25° C. in the PBS buffer (pH 7.4) with 0.05% Tween-20 and 0.1% BSA. Recombinant human PD-L1 protein (19-238) with a His-tag at the C-terminus was purchased from AcroBiosystems (PD1-H5229). Recombinant human PD-1 protein (25-167) with Fc tag at the C-terminus was also purchased from AcroBiosystems (PD1-H5257). PD-L1 and PD-1 proteins were diluted in the assay buffer and 10 μL was added to the plate well. Plates were centrifuged and proteins were preincubated with inhibitors for 40 minutes. The incubation was followed by the addition of 10 μL of HTRF detection buffer supplemented with Europium cryptate-labeled anti-human IgG (PerkinElmer-AD0212) specific for Fc and anti-His antibody conjugated to SureLight®-Allophycocyanin (APC, PerkinElmer-AD0059H). After centrifugation, the plate was incubated at 25° C. for 60 min. before reading on a PHERAstar FS plate reader (665 nm/620 nm ratio). Final concentrations in the assay were […], 10 nM PD-L1, 1 nM europium anti-human IgG and 20 nM anti-His-Allophycocyanin. IC50 determination was performed by fitting the curve of percent control activity versus the log of the inhibitor concentration using the GraphPad Prism 5.0 software.
# Chain of PD-1/PD-L1 (Q9NZQ7 19-238): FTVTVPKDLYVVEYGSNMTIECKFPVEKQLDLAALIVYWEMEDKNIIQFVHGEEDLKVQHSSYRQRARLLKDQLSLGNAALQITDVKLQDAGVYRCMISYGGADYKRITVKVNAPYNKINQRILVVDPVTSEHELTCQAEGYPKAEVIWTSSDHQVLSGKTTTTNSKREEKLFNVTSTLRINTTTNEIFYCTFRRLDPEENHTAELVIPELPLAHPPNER
row,IC50 [nM],Compound
1,≤ 10,"CN1CCc2c(nc(C(=O)Nc3cccc(-c4cccc(NC(=O)c5nc6c(n5C)CCN(C[C@H]5CC[C@H](C(=O)O)CC5)C6)c4Cl)c3C#N)n2C)C1 [Compound 149, trans-4-((2-((2-chloro-2′-cyano-3′-(1,5-dimethyl-4,5,6,7-tetrahydro-1H-imidazo[4,5-c]pyridine-2-carboxamido)-[1,1′-biphenyl]-3-yl)carbamoyl)-1-methyl-1,4,6,7-tetrahydro-5H-imidazo[4,5-c]pyridin-5-yl)methyl)cyclohexane-1-carboxylic acid]"
2,≤ 10,"CN1CCc2c(nc(C(=O)Nc3cccc(-c4cccc(NC(=O)c5nc6c(n5C)CCN(CC[C@H]5CC[C@H](C(=O)O)CC5)C6)c4Cl)c3C#N)n2C)C1 [Compound 150, trans-4-(2-(2-(2-chloro-2′-cyano-3′-(1,5-dimethyl-4,5,6,7-tetrahydro-1H-imidazo[4,5-c]pyridine-2-carboxamido)biphenyl-3-ylcarbamoyl)-1-methyl-6,7-dihydro-1H-imidazo[4,5-c]pyridin-5(4H)-yl)ethyl)cyclohexane-1-carboxylic acid]"
3,≤ 10,"CCN1CCc2c(nc(C(=O)Nc3cccc(-c4cccc(NC(=O)c5nc6c(n5C)CCN(CC[C@H]5CC[C@H](C(=O)O)CC5)C6)c4Cl)c3C#N)n2C)C1 [Compound 151, trans-4-(2-(2-((2-chloro-2′-cyano-3′-(5-ethyl-1-methyl-4,5,6,7-tetrahydro-1H-imidazo[4,5-c]pyridine-2-carboxamido)-[1,1′-biphenyl]-3-yl)carbamoyl)-1-methyl-1,4,6,7-tetrahydro-5H-imidazo[4,5-c]pyridin-5-yl)ethyl)cyclohexane-1-carboxylic acid]"
4,≤ 10,"CC(C)N1CCc2c(nc(C(=O)Nc3cccc(-c4cccc(NC(=O)c5nc6c(n5C)CCN(CC[C@H]5CC[C@H](C(=O)O)CC5)C6)c4Cl)c3C#N)n2C)C1 [Compound 152, trans-4-(2-(2-((2-chloro-2′-cyano-3′-(5-isopropyl-1-methyl-4,5,6,7-tetrahydro-1H-imidazo[4,5-c]pyridine-2-carboxamido)-[1,1′-biphenyl]-3-yl)carbamoyl)-1-methyl-1,4,6,7-tetrahydro-5H-imidazo[4,5-c]pyridin-5-yl)ethyl)cyclohexane-1-carboxylic acid]"
5,≤ 10,"Cn1c(C(=O)Nc2cccc(-c3cccc(NC(=O)c4nc5c(n4C)CCN(C4CCOCC4)C5)c3C#N)c2Cl)nc2c1CCN(CC[C@H]1CC[C@H](C(=O)O)CC1)C2 [Compound 153, trans-4-(2-(2-((2-chloro-2′-cyano-3′-(1-methyl-5-(tetrahydro-2H-pyran-4-yl)-4,5,6,7-tetrahydro-1H-imidazo[4,5-c]pyridine-2-carboxamido)-[1,1′-biphenyl]-3-yl)carbamoyl)-1-methyl-1,4,6,7-tetrahydro-5H-imidazo[4,5-c]pyridin-5-yl)ethyl)cyclohexane-1-carboxylic acid]"
6,≤ 10,"CCN1CCc2c(nc(C(=O)Nc3cccc(-c4cccc(NC(=O)c5nc6c(n5C)CCN(CC[C@H]5CC[C@H](C(=O)O)CC5)C6)c4C#N)c3Cl)n2C)C1 [Compound 154, trans-4-(2-(2-((2′-chloro-2-cyano-3′-(5-ethyl-1-methyl-4,5,6,7-tetrahydro-1H-imidazo[4,5-c]pyridine-2-carboxamido)-[1,1′-biphenyl]-3-yl)carbamoyl)-1-methyl-1,4,6,7-tetrahydro-5H-imidazo[4,5-c]pyridin-5-yl)ethyl)cyclohexane-1-carboxylic acid]"
7,≤ 10,"CC(C)N1CCc2c(nc(C(=O)Nc3cccc(-c4cccc(NC(=O)c5nc6c(n5C)CCN(CC[C@H]5CC[C@H](C(=O)O)CC5)C6)c4C#N)c3Cl)n2C)C1 [Compound 155, trans-4-(2-(2-((2′-chloro-2-cyano-3′-(5-isopropyl-1-methyl-4,5,6,7-tetrahydro-1H-imidazo[4,5-c]pyridine-2-carboxamido)-[1,1′-biphenyl]-3-yl)carbamoyl)-1-methyl-1,4,6,7-tetrahydro-5H-imidazo[4,5-c]pyridin-5-yl)ethyl)cyclohexane-1-carboxylic acid]"
8,≤ 10,"CCN1CCc2c(nc(C(=O)Nc3cccc(-c4cccc(NC(=O)c5nc6c(n5C)CCN(C[C@H]5CC[C@H](C(=O)O)CC5)C6)c4C#N)c3Cl)n2C)C1 [Compound 156, trans-4-((2-((2′-chloro-2-cyano-3′-(5-ethyl-1-methyl-4,5,6,7-tetrahydro-1H-imidazo[4,5-c]pyridine-2-carboxamido)-[1,1′-biphenyl]-3-yl)carbamoyl)-1-methyl-1,4,6,7-tetrahydro-5H-imidazo[4,5-c]pyridin-5-yl)methyl)cyclohexane-1-carboxylic acid]"
9,≤ 10,"Cn1c(C(=O)Nc2cccc(-c3cccc(NC(=O)c4nc5c(n4C)CCN(C[C@H]4CC[C@H](C(=O)O)CC4)C5)c3C#N)c2Cl)nc2c1CCN(C1CCOCC1)C2 [Compound 157, trans-4-((2-((2′-chloro-2-cyano-3′-(1-methyl-5-(tetrahydro-2H-pyran-4-yl)-4,5,6,7-tetrahydro-1H-imidazo[4,5-c]pyridine-2-carboxamido)-[1,1′-biphenyl]-3-yl)carbamoyl)-1-methyl-1,4,6,7-tetrahydro-5H-imidazo[4,5-c]pyridin-5-yl)methyl)cyclohexane-1-carboxylic acid]"
10,≤ 10,"Cc1c(-c2nc3c(s2)CN(C(=O)CN(C)C(C)C)C3)cccc1-c1cccc(NC(=O)c2nc3c(n2C)CCN(C[C@H]2CC[C@H](C(=O)O)CC2)C3)c1Cl [Compound 158, trans-4-((2-(2-chloro-3′-(5-(2-(isopropyl(methyl)amino)acetyl)-5,6-dihydro-4H-pyrrolo[3,4-d]thiazol-2-yl)-2′-methylbiphenyl-3-ylcarbamoyl)-1-methyl-6,7-dihydro-1H-imidazo[4,5-c]pyridin-5(4H)-yl)methyl)cyclohexane-1-carboxylic acid]"
11,≤ 10,"Cc1c(-c2nc3c(o2)CN(C(=O)CN2CC[C@](C)(C(=O)O)C2)C3)cccc1-c1cccc(NC(=O)c2nc3c(n2C)CCN(C)C3)c1Cl [Compound 163, (S)-1-(2-(2-(2′-chloro-3′-(1,5-dimethyl-4,5,6,7-tetrahydro-1H-imidazo[4,5-c]pyridine-2-carboxamido)-2-methyl-[1,1′-biphenyl]-3-yl)-4,6-dihydro-5H-pyrrolo[3,4-d]oxazol-5-yl)-2-oxoethyl)-3-methylpyrrolidine-3-carboxylic acid]"
12,≤ 10,"Cc1c(-c2nc3c(o2)CN(C(=O)CN[C@@H](C)CO)C3)cccc1-c1cccc(NC(=O)c2nc3c(n2C)CCN(C)C3)c1Cl [Compound 164, (S)—N-(2-chloro-3′-(5-((S)-(1-hydroxypropan-2-yl)glycyl)-5,6-dihydro-4H-pyrrolo[3,4-d]oxazol-2-yl)-2′-methyl-[1,1′-biphenyl]-3-yl)-1,5-dimethyl-4,5,6,7-tetrahydro-1H-imidazo[4,5-c]pyridine-2-carboxamide]"
13,≤ 10,"Cc1c(-c2nc3c(o2)CN(C(=O)CN[C@H]2C[C@@H](O)C2)C3)cccc1-c1cccc(NC(=O)c2nc3c(n2C)CCN(C)C3)c1Cl [Compound 165, N-(2-chloro-3′-(5-((cis-3-hydroxycyclobutyl)glycyl)-5,6-dihydro-4H-pyrrolo[3,4-d]oxazol-2-yl)-2′-methyl-[1,1′-biphenyl]-3-yl)-1,5-dimethyl-4,5,6,7-tetrahydro-1H-imidazo[4,5-c]pyridine-2-carboxamide]"
14,≤ 10,"Cc1c(-c2nc3c(o2)CN(C(=O)CN[C@H]2C[C@H](O)C2)C3)cccc1-c1cccc(NC(=O)c2nc3c(n2C)CCN(C)C3)c1Cl [Compound 166, N-(2-chloro-3′-(5-((trans-3-hydroxycyclobutyl)glycyl)-5,6-dihydro-4H-pyrrolo[3,4-d]oxazol-2-yl)-2′-methyl-[1,1′-biphenyl]-3-yl)-1,5-dimethyl-4,5,6,7-tetrahydro-1H-imidazo[4,5-c]pyridine-2-carboxamide]"
15,≤ 10,"Cc1c(-c2nc3c(o2)CN(C(=O)CN2CCC(C(=O)O)CC2)C3)cccc1-c1cccc(NC(=O)c2nc3c(n2C)CCN(C)C3)c1Cl [Compound 167, 1-(2-(2-(2′-chloro-3′-(1,5-dimethyl-4,5,6,7-tetrahydro-1H-imidazo[4,5-c]pyridine-2-carboxamido)-2-methyl-[1,1′-biphenyl]-3-yl)-4,6-dihydro-5H-pyrrolo[3,4-d]oxazol-5-yl)-2-oxoethyl)piperidine-4-carboxylic acid]"
16,≤ 10,"Cc1c(-c2nc3c(o2)CN(C(=O)CN(C)C)C3)cccc1-c1cccc(NC(=O)c2nc3c(n2C)CCN(C2CCC(C)(C(=O)O)CC2)C3)c1Cl (centres unmarked) [Compound 168, 4-(2-((2-chloro-3′-(5-(dimethylglycyl)-5,6-dihydro-4H-pyrrolo[3,4-d]oxazol-2-yl)-2′-methyl-[1,1′-biphenyl]-3-yl)carbamoyl)-1-methyl-1,4,6,7-tetrahydro-5H-imidazo[4,5-c]pyridin-5-yl)-1-methylcyclohexane-1-carboxylic acid]"
17,≤ 10,"CCN(C)CC(=O)N1Cc2nc(-c3cccc(-c4cccc(NC(=O)c5nc6c(n5C)CCN(CCC5CCC(C(=O)O)CC5)C6)c4Cl)c3Cl)oc2C1 (centres unmarked) [Compound 169, 4-(2-(2-((2,2′-dichloro-3′-(5-(N-ethyl-N-methylglycyl)-5,6-dihydro-4H-pyrrolo[3,4-d]oxazol-2-yl)-[1,1′-biphenyl]-3-yl)carbamoyl)-1-methyl-1,4,6,7-tetrahydro-5H-imidazo[4,5-c]pyridin-5-yl)ethyl)cyclohexane-1-carboxylic acid]"
